System: GA-primed murine splenocytes
Experiment: ANOVA-based pattern identification method
Assay type: cell-based, mouse
Settings: DOWN IN generic ONLY
Source text: We sought to identify probes matching specific patterns of expression across experimental conditions using a technique that referred to as the ANOVA-based Pattern Identification Method.
To carry out the analysis in a general manner, we computed the 6 p-values required to do pairwise comparisons of all 4 conditions for all probes using the ANOVA1 function in MATLAB. We then identified sets of probes matching the desired pattern. In the example above, probes were identified as being only affected by PG if their 6 pairwise comparison pvalues matched the following pattern (pGA-PG<0.05, pPG-reference standard<0.05, pPG-Medium<0.05, pGAMedium>0.05, pGA-reference standard>0.05, preference standard-Medium>0.05).

glatiramer acetate [GA]
GFRA3 expression level: 5.616 | GJA7 expression level: 5.868 | GM362 expression level: 5.639 | HEATR5A expression level: 5.695 | IGHVS515—AF290966_IG_HEAVY—VARIABLE_5515_49 expression level: 5.952 | LOC235971 expression level: 5.505 | LOC277422 expression level: 5.729 | LOC382760 expression level: 5.651 | LOC382783 expression level: 5.536 | LOC383612 expression level: 5.569 | LOC383940 expression level: 5.805 | LOC384215 expression level: 5.829 | LOC384513 expression level: 5.705 | LOC385059 expression level: 5.539 | LOC385626 expression level: 6.046 | LOC620009 expression level: 5.619 | LOC676672 expression level: 5.825 | LOC100043389 expression level: 5.675 | LTBP1 expression level: 5.694 | NEUROD4 expression level: 5.671 | NFAT5 expression level: 5.815 | OA1 expression level: 5.552 | OLFR750 expression level: 5.646 | OLFR1085 expression level: 5.642 | OLFR1158 expression level: 5.912 | OLFR1180 expression level: 5.658 | OLFR1230 expression level: 5.655 | OSBPL6 expression level: 5.8511 | PCDHGA8 expression level: 5.782 | PIK3R4 expression level: 5.881 | PPP1R14D expression level: 5.611 | PTCHD2 expression level: 5.831 | RARRES1 expression level: 5.601 | RNF207 expression level: 5.863 | RPL10A expression level: 14.66 | RTN2 expression level: 5.939 | SCL0070954.1_214 expression level: 5.822 | SERPINB3D expression level: 5.741 | SMARCA2 expression level: 5.616 | TMEM219 expression level: 6.158 | TRPC6 expression level: 5.632 | UTX expression level: 5.7 | control_ILMN_1378571 expression level: 5.812 | control_ILMN_1378664 expression level: 5.743 | control_ILMN_1379333 expression level: 5.62 | 1110032A03RIK expression (group mean): 5.853 | 1600012H06RIK expression (group mean): 7.313 | 1600029O10RIK expression (group mean): 7.692 | 1600032L17RIK expression (group mean): 6.091 | 1700006H02RIK expression (group mean): 5.861 | 1700011H14RIK expression (group mean): 5.738 | 1700016G05RIK expression (group mean): 5.78 | 1700016L04RIK expression (group mean): 5.693 | 1700045I19RIK expression (group mean): 5.885 | 1700073E17RIK expression (group mean): 5.629 | 1700112H15RIK expression (group mean): 5.628 | 1810005K13RIK expression (group mean): 5.74 | 1810007M14RIK expression (group mean): 6.86 | 2210008F06RIK expression (group mean): 5.65 | 2210018M11RIK expression (group mean): 6.603 | 2310016E02RIK expression (group mean): 5.742 | 2510049I19RIK expression (group mean): 6.311 | 2600011C06RIK expression (group mean): 6.286 | 2810402E24RIK expression (group mean): 6.296 | 4733401O04RIK expression (group mean): 6.449 | 4833420G17RIK expression (group mean): 6.181 | 4921505C17RIK expression (group mean): 6.382 | 4921506J03RIK expression (group mean): 9.893 | 4921506M07RIK expression (group mean): 5.749 | 4922502D21RIK expression (group mean): 5.774 | 4930449I04RIK expression (group mean): 5.894 | 4930524L23RIK expression (group mean): 5.492 | 5830411J07RIK expression (group mean): 5.837 | 5830415L20RIK expression (group mean): 7.797 | 5830472H07RIK expression (group mean): 6.24 | 6030408K21RIK expression (group mean): 5.64 | 9030003C19RIK expression (group mean): 6.271 | 9130601C02RIK expression (group mean): 5.724 | 9330133O14RIK expression (group mean): 6.205 | 9330171B01RIK expression (group mean): 5.814 | 9530013H16R1K expression (group mean): 5.782 | 9530053H22 expression (group mean): 5.531 | 9830118G07RIK expression (group mean): 6.53 | 9930021J03RIK expression (group mean): 5.61 | 6030408816RIK expression (group mean): 6.231 | A130003P22RIK expression (group mean): 6.043 | A130027D22RIK expression (group mean): 6.184 | A630040J04RIK expression (group mean): 5.997 | A630057J21RIK expression (group mean): 5.71 | A730082L10RIK expression (group mean): 6.255 | A930008A22RIK expression (group mean): 8.393 | A930025D01RIK expression (group mean): 6.43 | ADRA1B expression (group mean): 5.76 | AFMID expression (group mean): 6.226 | AGPAT5 expression (group mean): 5.926 | AGT expression (group mean): 5.634 | APOM expression (group mean): 6.071 | ARHGAP12 expression (group mean): 5.654 | ASH1L expression (group mean): 5.947 | ATG12 expression (group mean): 8.962 | ATL1 expression (group mean): 5.666 | AW822252 expression (group mean): 5.749 | B230120H23RIK expression (group mean): 5.612 | B230216G23RIK expression (group mean): 5.625 | B930071N01RIK expression (group mean): 5.764 | BC003331 expression (group mean): 7.368 | BC016608 expression (group mean): 5.838 | BC057371 expression (group mean): 5.752 | BCL10 expression (group mean): 6.261 | BCL11B expression (group mean): 6.506 | BCORL1 expression (group mean): 6.102 | BHLHB3 expression (group mean): 5.621 | BIRC6 expression (group mean): 6.264 | BMPR1B expression (group mean): 5.732 | C030004B10RIK expression (group mean): 5.708 | C77370 expression (group mean): 5.694 | C87414 expression (group mean): 5.972 | C130039E17RIK expression (group mean): 5.729 | C130064E22RIK expression (group mean): 7.411 | C130072C03RIK expression (group mean): 6.075 | C130075H21RIK expression (group mean): 5.869 | C130078D09RIK expression (group mean): 6.02 | C330011J12RIK expression (group mean): 5.722 | CALCRL expression (group mean): 5.569 | CCDC104 expression (group mean): 5.832 | CDH23 expression (group mean): 5.945 | CDKN1B expression (group mean): 6.29 | CFL2 expression (group mean): 6.246 | CHMP7 expression (group mean): 9.491 | CLASP1 expression (group mean): 6.034 | COL23A1 expression (group mean): 7.128 | COPS3 expression (group mean): 6.029 | COPZ1 expression (group mean): 6.26 | CPEB2 expression (group mean): 5.648 | CRLF1 expression (group mean): 5.648 | CTDSPL2 expression (group mean): 6.711 | D12WSU95E expression (group mean): 9.426 | D130078K04RIK expression (group mean): 5.957 | D730033A03RIK expression (group mean): 5.894 | D930007M19RIK expression (group mean): 6.333 | DEFB14 expression (group mean): 5.775 | DLC1 expression (group mean): 5.804 | DLG4 expression (group mean): 6.044 | DLGAP2 expression (group mean): 5.718 | DLX6 expression (group mean): 5.766 | DNAJC28 expression (group mean): 5.998 | DPPA1 expression (group mean): 5.758 | DPPA4 expression (group mean): 5.791 | E230016F22RIK expression (group mean): 5.685 | E530016P10RIK expression (group mean): 6.096 | EEFSEC expression (group mean): 5.654 | EG546913 expression (group mean): 5.766 | ELF2 expression (group mean): 6.475 | EP400 expression (group mean): 5.945 | FAAH expression (group mean): 5.947 | FABP2 expression (group mean): 5.582 | FBXW13 expression (group mean): 5.945 | FOXJ3 expression (group mean): 8.648 | GADD45GIP1 expression (group mean): 5.893 | GALNT1 expression (group mean): 7.895 | GALNT6 expression (group mean): 5.873 | GAPVD1 expression (group mean): 9.838 | GLRA1 expression (group mean): 5.643 | GM239 expression (group mean): 5.731 | GM438 expression (group mean): 5.731 | GM949 expression (group mean): 5.662 | GPR12 expression (group mean): 5.747 | GPRIN3 expression (group mean): 5.628 | GUCY2C expression (group mean): 5.74 | HARS expression (group mean): 6.212 | HBB-B1 expression (group mean): 13.28 | HEATR5B expression (group mean): 6.251 | HIRA expression (group mean): 5.73 | HIVEP3 expression (group mean): 5.796 | HPN expression (group mean): 5.793 | HRK expression (group mean): 5.72 | HSD362 expression (group mean): 5.745 | HSPA1B expression (group mean): 5.99 | ID2 expression (group mean): 6.095 | IFI204 expression (group mean): 5.486 | IGHV14S3—X03573$M12991X03573—IG_HEAVY—VARIABLE_14S3_203 expression (group mean): 6.044 | IKZF5 expression (group mean): 7.23 | IL1F9 expression (group mean): 5.644 | INPP4B expression (group mean): 9.329 | INSL6 expression (group mean): 9.438 | ITGA6 expression (group mean): 6.589 | ITK expression (group mean): 10.36 | JRKL expression (group mean): 5.816 | K20D4 expression (group mean): 5.688 | KAT2B expression (group mean): 6.564 | KCNK4 expression (group mean): 5.659 | KISS1 expression (group mean): 5.727 | KRIT1 expression (group mean): 5.684 | KRT32 expression (group mean): 6.01 | LCN3 expression (group mean): 5.859 | LCP2 expression (group mean): 6.557 | LOC209474 expression (group mean): 5.679 | LOC229152 expression (group mean): 5.605 | LOC236397 expression (group mean): 5.838 | LOC236831 expression (group mean): 12.43 | LOC268939 expression (group mean): 5.99 | LOC279638 expression (group mean): 6.022 | LOC333749 expression (group mean): 5.939 | LOC381448 expression (group mean): 12.91 | LOC381561 expression (group mean): 13.17 | LOC381770 expression (group mean): 6.112 | LOC382061 expression (group mean): 10.4 | LOC382454 expression (group mean): 5.761 | LOC384240 expression (group mean): 5.807 | LOC384287 expression (group mean): 5.612 | LOC385027 expression (group mean): 5.666 | LOC385046 expression (group mean): 5.695 | LOC630421 expression (group mean): 5.995 | LOC637082 expression (group mean): 5.805 | LOC674087 expression (group mean): 8.034 | LOC675899 expression (group mean): 11.9 | LOC100045437 expression (group mean): 5.74 | LOC100046343 expression (group mean): 8.607 | LOC100046568 expression (group mean): 5.888 | LOC100048049 expression (group mean): 5.81 | LOC100048616 expression (group mean): 6.595 | LOXL3 expression (group mean): 5.801 | LPIN2 expression (group mean): 7.582 | LRRC18 expression (group mean): 5.542 | LRRC39 expression (group mean): 5.712 | MACROD2 expression (group mean): 5.854 | MADD expression (group mean): 5.584 | MAT2A expression (group mean): 8.359 | MDM2 expression (group mean): 10.46 | MEDI expression (group mean): 5.672 | MEX3A expression (group mean): 6.913 | MIA3 expression (group mean): 5.862 | MIS12 expression (group mean): 5.989 | MKI67 expression (group mean): 5.673 | MRPS31 expression (group mean): 5.671 | MSH3 expression (group mean): 6.288 | MYB expression (group mean): 5.95 | MYO5C expression (group mean): 5.73 | NA112 expression (group mean): 8.275 | NANP expression (group mean): 5.686 | NARF expression (group mean): 7.224 | NCOA2 expression (group mean): 5.964 | NDRG1 expression (group mean): 7.329 | NIN expression (group mean): 8.534 | NIPSNAP1 expression (group mean): 9.27 | NT5C expression (group mean): 10.09 | NUFIP2 expression (group mean): 6.03 | OLFR125 expression (group mean): 5.697 | OLFR463 expression (group mean): 5.805 | OLFR504 expression (group mean): 5.746 | OLFR564 expression (group mean): 5.592 | OLFR782 expression (group mean): 5.74 | OLFR894 expression (group mean): 5.766 | PAPPA expression (group mean): 5.918

From US20140193827A1 (TEVA PHARMACEUTICAL INDUSTRIES, LTD., priority 2013, published 2014)
